23 compounds from patent US20100016298A1, “Theramutein modulators” (priority 2005, published 2010) can be followed below.

Molecules are shown by their SMILES.

The target of the assay is T1, Ba/F3 cells expressing the p210Bcr-Abl-T315I theramutein (Homo sapiens, UniProt P00519, T315I, cells depend on it).
T1 construct: IC50 activity category, T315I; T315I cell line; even at 10 μM concentration; fused on or other part: P11274 (Breakpoint cluster region protein)
Description: cellular assay system: growth inhibition (cell count), Ba/F3 T315I cell line. In kind it is cell-based, murine. The conditions noted are these: concentration inhibiting growth of the cell line by 50%, read-out: IC50 activity category, T315I.
For `Fc1cnc(N/N=C/c2ccc(Nc3cccc(C(F)(F)F)c3)cn2)nc1-c1cncc(C2CC2)c1`, the GI50 is under 10000 nM.
Turning to `Cc1cc(Nc2ccc(/C=N/Nc3ncc(F)c(N4CCOCC4)n3)nc2)cc(N2CCNCC2)c1`, the GI50 is under 1000 nM.
As for `CC(C(=O)O)c1ccc(Nc2ccc(/C=N/Nc3ncc(F)c(N4CCOCC4)n3)nc2)cc1` (centres unmarked), the GI50 was over 10000 nM.
With `Cc1ccccc1/C=N/Nc1ncc(F)c(N2CCOCC2)n1` the figure was over 10000 nM.
With `Cc1ccc(/C=N/Nc2ncc(F)c(N3CCOCC3)n2)cc1` the figure was over 10000 nM.
Take `Fc1cnc(N/N=C/c2ccccc2)nc1N1CCOCC1`: the GI50 was over 10000 nM.
Consider `CN(C)c1cc(O)cc(Nc2ccc(/C=N/Nc3ncc(F)c(N4CCOCC4)n3)nc2)c1`, for which the GI50 was under 1000 nM.
Then `Fc1cnc(N/N=C/c2ccc(Nc3ccc(-c4ccccn4)c(Cl)c3)cn2)nc1N1CCOCC1`, with under 1000 nM.
With `Oc1ccccc1/C=N/Nc1ncc(F)c(N2CCOCC2)n1` the figure was under 10000 nM; with `Oc1ccc(Br)cc1/C=N/Nc1ncc(F)c(N2CCOCC2)n1`, under 1000 nM.
With `Fc1cnc(N/N=C/c2ccc(Nc3cccc(C(F)(F)F)c3)cn2)nc1-c1cncc(-c2ccccc2)c1`, the GI50 was under 1000 nM.
With `Fc1cnc(N/N=C/c2ccc(Nc3cccc(-n4ccnc4)c3)cn2)nc1N1CCOCC1` the figure was under 1000 nM; with `O=C(Nc1cccc(C(F)(F)F)c1)c1cccc(/C=N/Nc2ncc(F)c(N3CCOCC3)n2)n1`, over 10000 nM.
Regarding `Oc1cccc(Nc2cccc(Nc3ccc(/C=N/Nc4ncc(F)c(N5CCOCC5)n4)nc3)c2)c1`, the GI50 is under 1000 nM.
With `Fc1cnc(N/N=C/c2ccc(-c3cccc(C(F)(F)F)c3)cn2)nc1N1CCOCC1` the figure was under 1000 nM; with `Fc1cnc(N/N=C/c2ccccn2)nc1N1CCOCC1`, under 1000 nM; with `Cc1cccc(Cl)c1NC(=O)C/C=N/Nc1ncc(F)c(N2CCOCC2)n1`, over 10000 nM.
With `O=C(NNc1ncc(F)c(N2CCOCC2)n1)c1ccc(Nc2cccc(C(F)(F)F)c2)cn1` the figure was under 1000 nM.
With `Cc1cc(Nc2cccc(C(F)(F)F)c2)ccc1/C=N/Nc1ncc(F)c(N2CCOCC2)n1` the figure was over 10000 nM.
Consider `O=C(C/C=N/Nc1ncc(F)c(N2CCOCC2)n1)Nc1cccc(C(F)(F)F)c1`, for which the GI50 was over 10000 nM.
On to `Fc1cnc(N/N=C/c2ccc(Nc3ccc(N4CCOCC4)cc3)cn2)nc1N1CCOCC1`, for which the GI50 is under 1000 nM.
With `O=C(Nc1cccc(C(F)(F)F)c1)c1ccc(/C=N/Nc2ncc(F)c(N3CCOCC3)n2)nc1` the figure was under 1000 nM; with `O=C(Nc1cccc(C(F)(F)F)c1)c1cc(Cl)c(O)c(/C=N\Nc2ncc(F)c(N3CCOCC3)n2)c1`, under 1000 nM.
